Literature values in patent publication US20210100738A1, “OXYGEN DELIVERY BEVERAGE” (RESPIROGEN, INC., priority 2018, published 2021).

Conditions: oral co-administration of lipids, in mammals

Structure (SMILES)	increase in bioavailability
CCCCCc1cc(O)c2c(c1)OC(C)(C)[C@@H]1CCC(C)=C[C@@H]21 [THC, Δ^9-tetrahydrocannabinol]	more than 2.5 fold
C=C(C)[C@@H]1CCC(C)=C[C@H]1c1c(O)cc(CCCCC)cc1O [CBD, cannabidiol]	~3 fold
